The supplement of paper PMC10307832

Experiments:
Test in all cases: relative viability (nuclei count vs DMSO), 5 days (fraction); higher = more cells survive
NCI-H1666 = conditions: first compound 0.5 µM
Summary of the method: (§1)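 Each reported value is a median over duplicate plates. It expresses relative viability: treated-well nuclei count divided by vehicle-well nuclei count. Lung cancer cell lines in 1536-well plates were dosed by pin tool a day after seeding, alone with one drug or with a fixed anchor-drug dose plus five library-drug doses (not always all listed) in √10 steps, and nuclei were counted after 5 days.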

ABC-1 = system: ABC-1
Summary of the method: as §1

HARA = system: HARA
Summary of the method: as §1

NCI-H727 = system: NCI-H727
Summary of the method: as §1

EKVX = system: EKVX
Summary of the method: as §1

201T = system: 201T
Summary of the method: as §1

NCI-H1437 = system: NCI-H1437
Summary of the method: as §1

NCI-H2170 = system: NCI-H2170
Summary of the method: as §1

LOU-NH91 = system: LOU-NH91
Summary of the method: as §1

NCI-H2009 = system: NCI-H2009
Summary of the method: as §1

SW 900 = system: SW 900
Summary of the method: as §1

NCI-H441 = system: NCI-H441
Summary of the method: as §1

COc1cc2nccc(Oc3ccc(NC(=O)Nc4cc(C)on4)c(Cl)c3)c2cc1OC [Tivozanib] + CC(=O)c1c(C)c2cnc(Nc3ccc(N4CCNCC4)cn3)nc2n(C2CCCC2)c1=O [Palbociclib] (partner 0.5 µM)
relative viability (NCI-H1666): 0.642 | relative viability (ABC-1; first compound 0.005 µM): 0.638 | relative viability (ABC-1; first compound 0.01581 µM): 0.732 | relative viability (ABC-1; first compound 0.05 µM): 0.562 | relative viability (ABC-1; first compound 0.1581 µM): 0.511 | relative viability (ABC-1; first compound 0.5 µM): 0.437 | relative viability (HARA; first compound 0.005 µM): 0.297 | relative viability (HARA; first compound 0.01581 µM): 0.208 | relative viability (HARA; first compound 0.05 µM): 0.3 | relative viability (HARA; first compound 0.1581 µM): 0.245 | relative viability (HARA; first compound 0.5 µM): 0.272 | relative viability (NCI-H727; first compound 0.005 µM): 0.659 | relative viability (NCI-H727; first compound 0.01581 µM): 0.659 | relative viability (NCI-H727; first compound 0.05 µM): 0.574 | relative viability (NCI-H727; first compound 0.1581 µM): 0.637 | relative viability (NCI-H727; first compound 0.5 µM): 0.7 | relative viability (EKVX; first compound 0.005 µM): 0.37 | relative viability (EKVX; first compound 0.01581 µM): 0.455 | relative viability (EKVX; first compound 0.05 µM): 0.449 | relative viability (EKVX; first compound 0.1581 µM): 0.291 | relative viability (EKVX; first compound 0.5 µM): 0.407 | relative viability (201T; first compound 0.005 µM): 0.395 | relative viability (201T; first compound 0.01581 µM): 0.39 | relative viability (201T; first compound 0.05 µM): 0.366 | relative viability (201T; first compound 0.1581 µM): 0.373 | relative viability (201T; first compound 0.5 µM): 0.357 | relative viability (NCI-H1437; first compound 0.005 µM): 0.364 | relative viability (NCI-H1437; first compound 0.01581 µM): 0.344 | relative viability (NCI-H1437; first compound 0.05 µM): 0.286 | relative viability (NCI-H1437; first compound 0.1581 µM): 0.368 | relative viability (NCI-H1437; first compound 0.5 µM): 0.26 | relative viability (NCI-H2170; first compound 0.005 µM): 0.398 | relative viability (NCI-H2170; first compound 0.01581 µM): 0.392 | relative viability (NCI-H2170; first compound 0.05 µM): 0.414 | relative viability (NCI-H2170; first compound 0.5 µM): 0.388 | relative viability (LOU-NH91; first compound 0.005 µM): 0.431 | relative viability (LOU-NH91; first compound 0.01581 µM): 0.498 | relative viability (LOU-NH91; first compound 0.05 µM): 0.513 | relative viability (LOU-NH91; first compound 0.1581 µM): 0.549 | relative viability (LOU-NH91; first compound 0.5 µM): 0.538 | relative viability (NCI-H2009; first compound 0.005 µM): 0.212 | relative viability (NCI-H2009; first compound 0.01581 µM): 0.209 | relative viability (NCI-H2009; first compound 0.05 µM): 0.23 | relative viability (NCI-H2009; first compound 0.1581 µM): 0.109 | relative viability (NCI-H2009; first compound 0.5 µM): 0.119 | relative viability (SW 900; first compound 0.005 µM): 0.519 | relative viability (SW 900; first compound 0.01581 µM): 0.552 | relative viability (SW 900; first compound 0.05 µM): 0.559 | relative viability (SW 900; first compound 0.5 µM): 0.531 | relative viability (NCI-H441; first compound 0.005 µM): 0.214 | relative viability (NCI-H441; first compound 0.01581 µM): 0.262 | relative viability (NCI-H441; first compound 0.05 µM): 0.248 | relative viability (NCI-H441; first compound 0.1581 µM): 0.216 | relative viability (NCI-H441; first compound 0.5 µM): 0.207
